From ChEMBL document CHEMBL3137381, “MMV Box Onchocerca lienalis screening set” come the findings set out here.

Holding throughout (format): functional
Test [1] deals with Onchocerca lienalis. As to the kind of experiment: MMV: Percent motility assay at a compound concentration of 3.1e-6 M. Activity score legend: 3: Active, 2: Moderately active; 1: Inactive, 0: Toxic. The conditions noted are these: at 3.1 µM.
The subject of test [2] is Onchocerca lienalis. The test can be described thus: MMV: Percent motility assay at a compound concentration of 1.25e-5 M. Activity score legend: 3: Active, 2: Moderately active; 1: Inactive, 0: Toxic. The note with it: at 12.5 µM.
The subject of test [3] is Onchocerca lienalis. As to the kind of experiment: MMV: Percent motility assay at a compound concentration of 7.8e-7 M. Activity score legend: 3: Active, 2: Moderately active; 1: Inactive, 0: Toxic. The conditions noted are these: at 0.78 µM.
The subject of test [4] is Onchocerca lienalis. As to the kind of experiment: MMV: Percent motility assay at a compound concentration of 1.9e-7 M. Activity score legend: 3: Active, 2: Moderately active; 1: Inactive, 0: Toxic. The note with it: at 0.19 µM.

For `CCOc1cc(CNC(C)C(O)c2ccccc2)cc(Cl)c1OCC` (stereo not drawn), the Motility in test [1], in test [2], in test [3] and in test [4] was 100% each time.

`OC(CNCC1CCCO1)Cn1c2ccc(Cl)cc2c2cc(Cl)ccc21` (stereo not drawn): the Motility in test [1], in test [2], in test [3] and in test [4] was 100% throughout.

`COc1ccc2nc(C)cc(Nc3ccccc3O)c2c1`: the Motility in test [1], in test [2], in test [3] and in test [4] was 100% throughout.

For the compound `CCn1nc(-c2ccc(C(=O)OC)cc2)nc2c(=O)n(C)c(=O)nc1-2`, the Motility in test [1], in test [2], in test [3] and in test [4] was 100% in each case.

Regarding `Cc1cc(NC(=O)c2cccc(C(F)(F)F)c2)n(-c2nc(-c3ccc4c(c3)OCO4)cs2)n1`, the Motility in test [1], in test [2], in test [3] and in test [4] was 100% throughout.

Turning to `COc1cccc(C2(C)Nc3ccccc3-c3nc4ccccc4n32)c1` (stereo not drawn), the Motility in test [1], in test [2], in test [3] and in test [4] was 100% each time.

On to `CC(C)CNC(=O)c1c(N)n(CCc2ccccc2F)c2nc3ccccc3nc12`, for which the Motility in test [1], in test [2], in test [3] and in test [4] was 100% in each case.

With `CC(C)(C)CC(C)(C)NCC(O)COc1ccc(Cl)cc1Cl` (stereo not drawn), the Motility in test [1], in test [2], in test [3] and in test [4] was 100% in each case.

Take `COCCNCC(O)Cn1c2ccc(Cl)cc2c2cc(Cl)ccc21` (stereo not drawn): the Motility in test [1] came out at 100%; in test [2] it was 66.66%; in test [3] it was 100%; in test [4] it was 100%.

Regarding `O=C(NC1CCN(Cc2ccccc2)CC1)c1cc(-c2ccncc2)nc2ccc(Cl)cc12`, the Motility in test [1], in test [2], in test [3] and in test [4] was 100% each time.

As to `CCC(O)c1ccc(Br)cc1NC(=O)c1cccc(Cl)c1` (stereo not drawn), the Motility in test [1], in test [2], in test [3] and in test [4] was 100% each time.

Consider `COc1cc2cc(C(=O)Nc3ccccc3)c(N)nc2cc1OC`, for which the Motility in test [1], in test [2], in test [3] and in test [4] was 100% throughout.

Take `O=C(O)C(=O)O.Oc1ccccc1CN1CCN(C(c2ccccc2)c2ccccc2)CC1`: the Motility in test [1], in test [2], in test [3] and in test [4] was 100% throughout.

For `CC(=O)Nc1nnc(SCc2c(C)cc(C(C)(C)C)cc2C)s1`, the Motility in test [1], in test [2], in test [3] and in test [4] was 100% in each case.

Consider `CCOc1ccc(C2N(C)c3ccccc3N2C)cc1`, for which the Motility in test [1], in test [2], in test [3] and in test [4] was 100% each time.

With `CCN(Cc1ccccc1)C1CCN(Cc2cc(Br)ccc2O)CC1.O=C(O)C(=O)O`, the Motility in test [1], in test [2], in test [3] and in test [4] was 100% throughout.

Regarding `COc1nc(Nc2ccc(C(C)C)cc2)nc(OC)n1`, the Motility in test [1], in test [2], in test [3] and in test [4] was 100% throughout.

With `CCOc1cccc(C(=O)Nc2ccc(-c3nc4ccccc4[nH]3)cc2)c1`, the Motility in test [1], in test [2], in test [3] and in test [4] was 100% throughout.

In the case of `Cl.Clc1cc(Br)ccc1-c1ccc(CNCC2CCNCC2)o1`, the Motility in test [1], in test [2], in test [3] and in test [4] was 100% throughout.

With `Cc1cc(NC(=O)c2ccc(-c3ccccc3)cc2)no1`, the Motility in test [1], in test [2], in test [3] and in test [4] was 100% in each case.

Regarding `COc1cc(SC)ccc1C(=O)N1CCCC(C)C1` (stereo not drawn), the Motility in test [1], in test [2], in test [3] and in test [4] was 100% each time.

Take `CC1CC(C)CN(C(=O)c2ccc(Cl)cc2Cl)C1` (stereo not drawn): the Motility in test [1], in test [2], in test [3] and in test [4] was 100% throughout.

With `OC(CNC1CCCC1)Cn1c2ccccc2c2ccccc21` (stereo not drawn), the Motility in test [1], in test [2], in test [3] and in test [4] was 100% in each case.

As to `Cc1ccc(NC(=O)Nc2cccc(Cl)c2)cc1F`, the Motility in test [1], in test [2], in test [3] and in test [4] was 100% throughout.

For the compound `O=c1nc(C=Cc2ccc(Cl)cc2)oc2ccccc12`, the Motility in test [1], in test [2], in test [3] and in test [4] was 100% in each case.

As for `O=C(NCc1ccco1)C1CCN(S(=O)(=O)c2ccc(Br)cc2)CC1`, the Motility in test [1], in test [2], in test [3] and in test [4] was 100% each time.

On to `Clc1ccc2[nH]c3c(NCCCN4CCOCC4)ncnc3c2c1`, for which the Motility in test [1], in test [2], in test [3] and in test [4] was 100% each time.

For `Oc1c2c(nc3cc(-c4ccccc4)nn13)CCCC2`, the Motility in test [1], in test [2], in test [3] and in test [4] was 100% throughout.

As for `Cc1cc(N2CCN(C3CCCC3)CC2)n2c(nc3ccccc32)c1C#N`, the Motility in test [1], in test [2], in test [3] and in test [4] was 100% each time.

As to `CCCCOc1ccc(C(=O)Nc2cc(C)on2)cc1`, the Motility in test [1], in test [2], in test [3] and in test [4] was 100% in each case.

As for `CCc1ccc(Nc2cc(C)nc3nc(C)nn23)cc1`, the Motility in test [1], in test [2], in test [3] and in test [4] was 100% each time.

For the compound `Br.CCN(CC)S(=O)(=O)c1ccc(-c2csc(Nc3ccc(C)c(C)c3)n2)cc1`, the Motility in test [1], in test [2], in test [3] and in test [4] was 100% each time.
